Assay results published in paper PMC6017749, “Exploring N-acyl-4-azatetracyclo[5.3.2.0^2,6.0^8,10]dodec-11-enes as 11β-HSD1 Inhibitors” (Molecules : A Journal of Synthetic Chemistry and Natural …, 2018).
Values joined by “and” are separate entries in the source; they are usually repeats but may differ in a detail not shown here. Equal values may be shown once.

Columns and labels:
human 11β-HSD2 = target: T1, human 11β-HSD2 (Homo sapiens, UniProt P80365); assay: Cellular 11β-HSD2 enzyme inhibition assay (HEK293 stably transfected); type: cell-based; conditions: HEK293, 10 µM, HEK293 transfected with human 11β-HSD2; read-out: HEK hHSD2 % inh at 10 µM
T1 construct: stably transfected with the full-length gene coding for human 11β-HSD2; expressed in transfected cells; host or cells: HEK293
T1 sequence (P80365 1-405): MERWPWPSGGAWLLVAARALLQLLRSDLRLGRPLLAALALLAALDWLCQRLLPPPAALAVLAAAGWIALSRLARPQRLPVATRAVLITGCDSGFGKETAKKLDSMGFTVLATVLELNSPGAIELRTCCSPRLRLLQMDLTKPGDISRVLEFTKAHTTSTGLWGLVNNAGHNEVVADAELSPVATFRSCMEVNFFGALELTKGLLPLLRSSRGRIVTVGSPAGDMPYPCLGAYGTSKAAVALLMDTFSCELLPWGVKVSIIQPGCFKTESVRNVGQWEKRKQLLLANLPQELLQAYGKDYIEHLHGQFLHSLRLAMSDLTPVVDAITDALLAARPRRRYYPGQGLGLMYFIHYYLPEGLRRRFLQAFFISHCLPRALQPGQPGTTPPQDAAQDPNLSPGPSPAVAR
Description: (§1) Selectivity over 11β-HSD2 was also assessed in a cell-based assay using the same methodology as before (HEK293 stably transfected with the 11β-HSD2 gene). […] Finally, metabolic stability was determined using HLM, which are widely used to predict the degree of primary metabolic clearance in the liver. Each compound was incubated over 30 min with HLM and the percentage of remaining compound after this incubation period was determined by calculating compound concentration after and before by LC/MS.
For measurement of inhibition of 11β-HSD2, HEK293 cells stably transfected with the full-length gene coding for human 11β-HSD2 were used. The protocol was the same as for the cellular 11β-HSD1 enzyme inhibition assay, only changing the substrate, this time cortisol, and the concentrations of the tested compounds, 10, 1, and 0.1 µM. Reported values are the average of 1–3 measurements.

human 11β-HSD1 [1] = target: T2, human 11β-HSD1 (Homo sapiens, UniProt P28845); assay: Cellular 11β-HSD1 enzyme inhibition assay (HEK293 stably transfected, cortisol by LC/MS); type: cell-based; conditions: for inhibition at 10 µM: HEK293 transfected with human 11β-HSD1, read-out: HEK hHSD1 % inh at 10 µM; for HEK hHSD1 % inh at 10 µM: HEK293 transfected with human 11β-HSD1
T2 construct: The assay uses human liver microsomes (HLM), where the enzyme is expressed; tissue Celsis In-vitro Technologies; host or cells: mixed sex human liver microsomes
Description: Those compounds with submicromolar IC50 values (4, 6, 8, 9 and 16) were further evaluated in terms of cellular potency, selectivity over 11β-HSD2, and metabolic stability as follows (Table 2, 5th, 6th, and 7th column, respectively). Cellular potency was assessed using Human Embryonic Kidney 293 (HEK293) cells stably transfected with the 11β-HSD1 gene. Cells were incubated with substrate (cortisone) and percentage of inhibition was determined by measuring the conversion of cortisone to cortisol by LC/MS. The results were in line with the previous results obtained in the microsomal assay.
The cellular 11β-HSD1 enzyme inhibition assay was performed using HEK293 cells stably transfected with the human 11β-HSD1 gene. Cells were incubated with substrate (cortisone) and product (cortisol) was determined by LC/MS. Cells were plated at 2 × 10^4 cells/well in a 96-well poly-D-lysine coated tissue culture microplate (Greiner Bio-one, Monroe, NC, USA) and incubated overnight at 37 °C in 5% CO2 […]. Compounds to be tested were solubilized in 100% dimethylsulfoxide (DMSO) at 10 mM and serially diluted in water and 10% DMSO to final concentration of 10 µM in 10% DMSO. Then 10 µL of each test dilution and 10 µL of 10% DMSO (for low and high control) were dispensed into the well of a new 96-well microplate (Greiner Bio-one). Medium was removed from the cell assay plate and 100 µL of Dulbecco’s Modified Eagle’s Medium DMEM solution (containing 1% penicillin, 1% streptomycin and 300 nM cortisone) added to each well. Cells were incubated for 2 h at 37 °C in 5% CO2 […]. Following incubation, medium was removed from each well into an Eppendorf containing 500 µL of ethyl acetate, mixed by vortex and incubated at r.t. for 5 min. A calibration curve of known concentrations of cortisol in assay medium was also set up and added to 500 µL of ethyl acetate, vortexed and incubated as above. The supernatant of each Eppendorf was removed to a 96-deep-well plate and dried down under […] at 65 °C. Each well was solubilized in 100 µL 70:30 H2O:acetonitrile (ACN) and removed to a 96-well V-bottomed plate for LC/MS analysis. Separation was carried out on a Sunfire 150 × 2.1 mm, […] column using a H2O:ACN gradient profile. Typical retention times were 2.71 min for cortisol and 2.80 min for cortisone. The peak area was calculated and the concentration of each compound determined from the calibration curve. Reported values are the average of 1–3 measurements.

human 11β-HSD1 [2] = target: T2, human 11β-HSD1; assay: 11β-HSD1 enzyme inhibition assay in human liver microsomes (3H-cortisone to 3H-cortisol, SPA); type: biochemical; conditions: for inhibition at 10 µM: read-out: hHSD1 % inh at 10 µM; for IC50: read-out: hHSD1 IC50
Description: A preliminary screen was performed using a human microsome assay with compounds at 10 µM in order to assess their potential inhibition of the target enzyme (Table 2). Percentage of inhibition was determined by measuring the conversion of ^3H-cortisone to ^3H-cortisol by capturing liberated ^3H-cortisol on anti-cortisol (HyTest Ltd., Turku, Finland)-coated scintillation proximity assay beads. The assay uses human liver microsomes (HLM), where the enzyme is expressed, and NADPH as the cofactor needed by the enzyme. Eight of the thirteen new compounds presented 100% inhibition of the human 11β-HSD1 in this single concentration assay, so dose-response curves were performed to get their IC50 values.
11β-HSD1 activity was determined in mixed sex, human liver microsomes (HLM, Celsis In-vitro Technologies) by measuring the conversion of ^3H-cortisone to ^3H-cortisol. Percentage inhibition was determined relative to a no inhibitor control. An amount of 5 μg of HLM were pre-incubated at 37 °C for 15 min with inhibitor and 1 mM NADPH in a final volume of 90 μL Krebs buffer. 10 μL of 200 nM ^3H-cortisone was then added followed by incubation at 37 °C for a further 30 min. The assay was terminated by rapid freezing on dry ice and ^3H-cortisone to ^3H-cortisol conversion determined in 50 μL of the defrosted reaction by capturing liberated ^3H-cortisol on anti-cortisol (HyTest Ltd)-coated scintillation proximity assay beads (protein A-coated YSi, GE Healthcare). Reported values are the average of 1–3 measurements. A nanomolar 11β-HSD1 inhibitor, UE2316, was added as a positive control within in each set of assays.

[3] = Microsomal stability assay in human liver microsomes; type: in vitro ADME; conditions: remaining compound after 30-min incubation in HLM
Description: as §1
The microsomal stability of each compound was determined using human liver microsomes (HLM, Celsis In-vitro Technologies, Baltimore, MD, USA). Microsomes were thawed and diluted to a concentration of 2 mg/mL in 50 mM sodium phosphate buffer pH 7.4. Each compound was diluted in 4 mM NADPH (made in the phosphate buffer above) to a concentration of 10 µM. Two identical incubation plates were prepared to act as a 0 min and a 30 min time point assay. 30 µL of each compound dilution was added in duplicate to the wells of a U-bottom 96-well plate and warmed at 37 °C for approximately 5 min. Verapamil, lidocaine, and propranolol at 10 µM concentration were utilized as reference compounds in this experiment. Microsomes were also pre-warmed at 37 °C before the addition of 30 µL to each well of the plate resulting in a final concentration of 1 mg/mL. The reaction was terminated at the appropriate time point (0 or 30 min) by addition of 60 µL of ice-cold 0.3 M trichloroacetic acid (TCA) per well. The plates were centrifuged for 10 min at 112× g and the supernatant fraction transferred to a fresh U-bottom 96-well plate. Plates were sealed and frozen at −20 °C prior to MS analysis. LC-MS/MS was used to quantify the peak area response of each compound before and after incubation with HLM using MS tune settings established and validated for each compound. These peak intensity measurements were used to calculate the percentage remaining after incubation with HLM for each hit compound. Reported values are the average of 1–3 measurements.

[4] = 10 µM, human liver microsomes, relative to no inhibitor control

T2 sequence (P28845 whole entry): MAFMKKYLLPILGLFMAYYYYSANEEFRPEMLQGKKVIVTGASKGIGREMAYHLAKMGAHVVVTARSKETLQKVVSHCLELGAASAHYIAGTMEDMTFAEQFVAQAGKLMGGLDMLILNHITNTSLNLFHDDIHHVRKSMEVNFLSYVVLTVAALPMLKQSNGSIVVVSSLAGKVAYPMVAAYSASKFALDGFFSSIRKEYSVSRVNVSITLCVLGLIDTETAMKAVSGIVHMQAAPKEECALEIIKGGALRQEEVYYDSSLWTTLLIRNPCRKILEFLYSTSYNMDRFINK

| inhibition at 10 µM (human 11β-HSD2) [%] | melting point [°C] | inhibition at 10 µM (human 11β-HSD1 [1]) [%] | inhibition at 10 µM (human 11β-HSD1 [2]; [4]) [%] | IC50 (human 11β-HSD1 [2]; human liver microsomes) | HLM % Parent [3] [%] | hHSD1 % inh at 10 µM (human 11β-HSD1 [2]; [4]) [%] | HEK hHSD1 % inh at 10 µM (human 11β-HSD1 [1]) | IC50 of positive control (human 11β-HSD1 [2]; positive control within each set of assays, normal range per ref 20) | Compound |
| --- | --- | --- | --- | --- | --- | --- | --- | --- | --- |
| 84 | 65 to 66 | 77 | 100 | 0.546 µM | 85 | – | – | – | O=C(c1ccccc1)N1CC2C3C=CC(C4CC34)C2C1 (stereo not shown) [Compound 4, (4-Azatetracyclo[5.3.2.0^2,6.0^8,10]dodec-11-en-4-yl)(phenyl)methanone] |
| – | 110 to 111 | – | 100 | 4.3 µM and 4.27 µM | – | – | – | – | O=C(c1ccccn1)N1CC2C3C=CC(C4CC34)C2C1 (stereo not shown) [Compound 5, (4-Azatetracyclo[5.3.2.0^2,6.0^8,10]dodec-11-en-4-yl)(pyridin-2-yl)methanone] |
| 71 | 91 to 92 | 41 | 100 | 0.666 µM | 60 | – | – | – | CC(C)(C)C(=O)N1CC2C3C=CC(C4CC34)C2C1 (stereo not shown) [Compound 6, (4-Azatetracyclo[5.3.2. 0^2,6.0^8,10]dodec-11-en-4-yl)(tert-butyl)methanone] |
| – | 104 to 105 | – | < 50 | – | – | 49 | – | – | O=C(c1cccs1)N1CC2C3C=CC(C4CC34)C2C1 (stereo not shown) [Compound 7, (4-Azatetracyclo[5.3.2.0^2,6.0^8,10]dodec-11-en-4-yl)(thien-2-yl)methanone] |
| 86 | 186 to 187 | 100 | 100 | 0.045 µM | 13 | – | complete inhibition | – | Nc1c(Cl)cc(C(=O)N2CC3C4C=CC(C5CC45)C3C2)cc1Cl (stereo not shown) [Compound 8, (4-Amino-3,5-dichlorophenyl)(4-azatetracyclo[5.3.2. 0^2,6.0^8,10]dodec-11-en-4-yl)methanone] |
| – | 101 to 102 | – | – | – | – | – | – | – | O=C(c1ccc(Cl)nc1)N1CC2C3C=CC(C4CC34)C2C1 (stereo not shown) [Compound 10, (4-Azatetracyclo[5.3.2. 0^2,6.0^8,10]dodec-11-en-4-yl) (6-chloropyridin-3-yl)methanone] |
| – | 135 to 136 | – | – | – | – | – | – | – | O=C(c1ccnc(Cl)c1)N1CC2C3C=CC(C4CC34)C2C1 (stereo not shown) [Compound 11, (4-Azatetracyclo[5.3.2. 0^2,6.0^8,10]dodec-11-en-4-yl)(2-chloropyridin-4-yl)methanone] |

The remaining lines, values behind:

| Compound | inhibition at 10 µM (human 11β-HSD2) [%] | melting point [°C] | inhibition at 10 µM (human 11β-HSD1 [1]) [%] | inhibition at 10 µM (human 11β-HSD1 [2]; [4]) [%] | IC50 (human 11β-HSD1 [2]; human liver microsomes) | HLM % Parent [3] [%] | hHSD1 % inh at 10 µM (human 11β-HSD1 [2]; [4]) [%] | HEK hHSD1 % inh at 10 µM (human 11β-HSD1 [1]) | IC50 of positive control (human 11β-HSD1 [2]; positive control within each set of assays, normal range per ref 20) |
| --- | --- | --- | --- | --- | --- | --- | --- | --- | --- |
| O=C(C1CC=CCC1)N1CC2C3C=CC(C4CC34)C2C1 (stereo not shown) [Compound 9, (4-Azatetracyclo[5.3.2. 0^2,6.0^8,10]dodec-11-en-4-yl)(cyclohex-3-en-1-yl)methanone] | 87 | 78 to 79 | 100 | 100 | 0.056 µM | 44 | – | complete inhibition | – |
| CN1CCC(C(=O)N2CC3C4C=CC(C5CC45)C3C2)CC1 (stereo not shown) [Compound 12, (4-Azatetracyclo[5.3.2. 0^2,6.0^8,10]dodec-11-en-4-yl)(1-methylpiperidin-4-yl)methanone] | – | 100 to 101 | – | – | – | – | – | – | – |
| CC(=O)N1CCC(C(=O)N2CC3C4C=CC(C5CC45)C3C2)CC1 (stereo not shown) [Compound 13, 1-[[4-(4-Azatetracyclo[5.3.2. 0^2,6.0^8,10]dodec-11-en-4-yl)carbonyl]piperidin-1-yl]ethan-1-one] | – | 134 to 135 | – | – | – | – | – | – | – |
| O=C(c1ccc(N2CCN(c3ccccc3)CC2)nc1)N1CC2C3C=CC(C4CC34)C2C1 (stereo not shown) [Compound 14, (4-Azatetracyclo[5.3.2.0^2,6.0^8,10]dodec-11-en-4-yl)[6-(4-phenylpiperazin-1-yl)pyridin-3-yl]methanone] | – | 90 to 91 | – | 100 | 5.44 µM | – | – | – | – |
| O=C(c1ccc(N2CCN(c3ccc(C(F)(F)F)cc3)CC2)nc1)N1CC2C3C=CC(C4CC34)C2C1 (stereo not shown) [Compound 15, (4-Azatetracyclo[5.3.2.0^2,6.0^8,10]dodec-11-en-4-yl)[6-[4-(4-trifluoromethyl)phenylpiperazin-1-yl]pyridin-3-yl]methanone] | – | 157 to 158 | – | 100 | 11.6 µM | – | – | – | – |
| O=C(c1csc(-c2cn[nH]c2)c1)N1CCC(F)(c2ccccc2Cl)CC1 [UE2316, reference compound] | – | – | – | – | – | – | – | – | within the normal range |
